Converted amounts (≈) assume the structure as drawn. “And” between values parts separate entries of the source, which are not always exact repeats. Equal entries are not always repeated. Where two headings read alike, the source gives them in different places.
Columns and labels:
CHI Log D procedure = assay type: physicochemical; settings: for CHI Log D: pH 7.4; for chromatographic logD: pH 7.4, CHI Log D
[1] = molecular target: T1, full-length B-Catenin (Uniprot ID P35222) (Homo sapiens, UniProt P35222); test: Alphascreen binding assay (beta-catenin / biotin-TCF4 10-53)
T1 construct: 65 nM full-length B-Catenin (Uniprot ID P35222)
T1 sequence (P35222 1-781): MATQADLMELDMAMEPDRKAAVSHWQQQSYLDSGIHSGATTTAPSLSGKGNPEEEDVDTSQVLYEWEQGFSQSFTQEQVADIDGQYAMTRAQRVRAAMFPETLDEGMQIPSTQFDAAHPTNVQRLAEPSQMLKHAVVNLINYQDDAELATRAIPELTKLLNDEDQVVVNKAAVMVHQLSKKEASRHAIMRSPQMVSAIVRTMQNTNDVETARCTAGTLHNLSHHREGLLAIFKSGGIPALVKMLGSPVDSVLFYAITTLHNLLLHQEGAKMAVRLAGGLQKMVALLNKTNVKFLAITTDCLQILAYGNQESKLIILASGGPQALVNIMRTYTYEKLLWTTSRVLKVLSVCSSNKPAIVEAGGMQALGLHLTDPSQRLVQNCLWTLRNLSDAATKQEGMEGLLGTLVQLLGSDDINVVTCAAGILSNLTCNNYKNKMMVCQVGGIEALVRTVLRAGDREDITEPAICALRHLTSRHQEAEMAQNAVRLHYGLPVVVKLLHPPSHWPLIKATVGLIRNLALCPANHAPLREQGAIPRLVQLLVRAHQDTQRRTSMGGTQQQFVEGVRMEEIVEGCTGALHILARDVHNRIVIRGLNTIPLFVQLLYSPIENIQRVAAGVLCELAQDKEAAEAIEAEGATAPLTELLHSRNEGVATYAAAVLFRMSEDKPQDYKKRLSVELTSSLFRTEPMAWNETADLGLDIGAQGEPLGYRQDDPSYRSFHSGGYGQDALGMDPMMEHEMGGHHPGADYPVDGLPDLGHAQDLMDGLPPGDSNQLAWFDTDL
Procedure: In some embodiments, an assay is an Alphascreen binding assay. A useful protocol is described below as an example.
Alphascreen binding assay: Using the AlphaScreen Histidine (Nickel Chelate) Detection Kit (PerkinElmer), peptide solutions were prepared in buffer (50 mM Tris pH 8.0, 250 mM NaCl, 2% glycerol, 0.03% Tween-20, 0.01% TritonX-100, 0.1% BSA w/v) using a 3-fold serial dilution from 10 uM to 5 nM. Probe solution (65 nM full-length B-Catenin (Uniprot ID P35222), mixed with 10 nM biotin labeled TCF4 residues 10-53 (Uniprot ID Q9NQB0) peptide in buffer) was prepared and 4 uL per well was plated in a white polystyrene 384-well plate (Corning). Equal volume of the titrated peptide was added to the plate and incubated for 15 minutes at 20° C. Then 4 uL of donor and 4 uL acceptor beads at 10 ug/mL were added to the plate, for a 16 uL reaction pool and protected from light for 60 minutes at 20° C. prior to read. Reads were performed on a CLARIOstar plate reader (BMG Labtech) in duplicate, and data were fitted to a 1:1 binding model with hill slope using an in-house script. All provided concentrations are final concentrations.

[2] = system: TCF/LEF luciferase Reporter in DLD1 cells; test: TCF reporter assay (DLD1 TCF/LEF luciferase reporter, Bright-Glo); assay type: cell-based; settings: for DLD1 TCF c2 BrightGlo % Inhibition: replicates
Procedure, shortened: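 DLD1 cells stably carrying a TCF/LEF luciferase reporter were plated at 5000 cells/well in RPMI + 4% FBS and treated overnight with a 1:2 compound dilution series. Bright-Glo luminescence read on day 3; viability by CellTiter-Glo. Absolute IC50 determined.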

[3] = molecular target: T2, beta-catenin/TCF4 engagement (Homo sapiens, UniProt P35222); test: Nano-BRET target engagement assay (B-cat-Halo & TCF4-Luc in HEK293 cells); assay type: cell-based; settings: read-out: NanoBRET Abs IC50
T2 construct: expressed in transfected cells; host or cells: HEK293
T2 sequence (P35222 1-781): T1 sequence (P35222 1-781)

[4] = molecular target: T3, full-length beta-Catenin (Uniprot ID P35222) (Homo sapiens, UniProt P35222); test: Fluorescence polarization IC50 (beta-catenin / 5FAM-TCF4 10-53 competition); assay type: binding
T3 construct: 10 nM full-length beta-Catenin (Uniprot ID P35222)
T3 sequence (P35222 1-781): T1 sequence (P35222 1-781)

Solubility in PBS = assay type: physicochemical
Procedure, shortened: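 The PBS solution was ultracentrifuged and the supernatant analyzed by HPLC. Its peak area was divided by that of a 50 μM peptide DMSO reference injection and multiplied by 50 uM to give solubility.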

[5] = absolute IC50, read-out: DLD1 reporter assay Abs IC50
[6] = first dose = 20 uM (plate map), 20 µM
[7] = third dose = 5 uM (plate map), 5 µM

Structure (SMILES)	CHI Log D (CHI Log D procedure)	EC50 [1]	chromatographic logD (CHI Log D procedure)	IC50 [2, 5]	IC50 ([3]; absolute IC50)	IC50 ([4]; read-out: beta-Catenin FP IC50)	Solubility (Solubility in PBS; Solubility (uM))	also measured
CC(=O)N[C@@H](Cc1ccccc1)C(=O)N[C@@H](CC(=O)O)C(=O)N[C@@H](C)C(=O)N[C@]1(C)CCCCCCC=CCOC(=O)N2CC[C@@](C(=O)N[C@@H](CC3CCCC3)C(=O)N[C@@H](Cc3c[nH]c4ccccc34)C(=O)N[C@@H](CCC(N)=O)C(N)=O)(C2)NC(=O)[C@H](C(C)C)NC(=O)[C@H](Cc2ccccc2)NC(=O)[C@H](C)NC(=O)[C@H](C)NC(=O)[C@H](CC(=O)O)NC(=O)[C@H](CC(=O)O)NC1=O (single isomer, unassigned) [I-94, Ac-Phe-Asp-Ala-R8-Asp-Asp-Ala-Ala-Phe-Val-PyrS-CypA-Trp-Gln-NH2]	1.409	7.01 µM	–	–	–	–	–	–
CC(=O)N[C@@H](Cc1ccccc1)C(=O)N[C@@H](CC(=O)O)C(=O)N[C@@H](C)C(=O)N[C@]1(C)CCCCCCC=CCOC(=O)N2CC[C@@](C(=O)N[C@@H](Cc3ccccc3)C(=O)N[C@@H](Cc3c[nH]c4ccccc34)C(=O)N[C@@H](CCC(N)=O)C(N)=O)(C2)NC(=O)[C@H](C(C)C)NC(=O)[C@H](Cc2ccccc2)NC(=O)[C@H](C)NC(=O)[C@H](C)NC(=O)[C@H](CCCC(=O)O)NC(=O)[C@H](CC(=O)O)NC1=O [I-6, Ac-Phe-Asp-Ala-R8-Asp-Aad-Ala-Ala-Phe-Val-PyrS-Phe-Trp-Gln-NH2]	1.378	6.5 µM	–	–	–	–	–	–
CC(=O)N[C@@H](Cc1ccccc1)C(=O)N[C@@H](CC(=O)O)C(=O)N[C@@H](C)C(=O)N[C@]1(C)CCCC=CCOC(=O)N(C)CCC[C@@](C)(C(=O)N[C@@H](Cc2ccccc2)C(=O)N[C@@H](Cc2c[nH]c3ccccc23)C(=O)N[C@@H](CCC(N)=O)C(N)=O)NC(=O)[C@H](C(C)C)NC(=O)[C@H](Cc2ccccc2)NC(=O)[C@H](C)NC(=O)[C@H](C)NC(=O)[C@H](CC(=O)O)NC(=O)[C@H](CC(=O)O)NC1=O [I-25, Ac-Phe-Asp-Ala-R5-Asp-Asp-Ala-Ala-Phe-Val-SeN-Phe-Trp-Gln-NH2]	–	7.22 µM	1.17	–	–	–	–	–
CC(=O)N[C@@H](Cc1ccccc1)C(=O)N[C@@H](CC(=O)O)C(=O)N[C@@H](C)C(=O)N[C@]1(C)CCCCCC=CCOC(=O)N2CC[C@@](C(=O)N[C@@H](Cc3ccccc3)C(=O)N[C@@H](Cc3c[nH]c4ccccc34)C(=O)N[C@@H](CCC(N)=O)C(N)=O)(C2)NC(=O)[C@H](C(C)C)NC(=O)[C@H](Cc2ccccc2)NC(=O)[C@H](C)NC(=O)[C@H](C)NC(=O)[C@H](CC(=O)O)NC(=O)[C@H](CC(=O)O)NC1=O [I-30, Ac-Phe-Asp-Ala-R7-Asp-Asp-Ala-Ala-Phe-Val-PyrS-Phe-Trp-Gln-NH2]	1.228	8.82 µM	–	–	–	–	–	–
COc1ccc(C[C@@H]2NC(=O)[C@H](C)NC(=O)[C@H](C)NC(=O)[C@H](CCC(=O)O)NC(=O)[C@H](CC(=O)O)NC(=O)C3(CCCC=CCCCCCC[C@@](C)(C(=O)N[C@@H](Cc4ccccc4)C(=O)N[C@@H](Cc4c[nH]c5ccccc45)C(=O)N[C@@H](CCC(N)=O)C(N)=O)NC(=O)[C@H](C(C)C)NC2=O)CCCC=CC[C@]2(CCCN2C(C)=O)C(=O)N[C@@H](CC(=O)O)C(=O)N[C@@H](C)C(=O)N3)cc1 (stereo partly drawn) [I-218, Ac-PL3-Asp-Ala-B5-Asp-Glu-Ala-Ala-MeTyr-Val-S8-Phe-Trp-Gln-NH2]	–	0.09 µM	–	–	–	–	–	–

Now from value to molecule, other results behind:

CHI Log D (CHI Log D procedure)	EC50 [1]	chromatographic logD (CHI Log D procedure)	IC50 [2, 5]	IC50 ([3]; absolute IC50)	IC50 ([4]; read-out: beta-Catenin FP IC50)	Solubility (Solubility in PBS; Solubility (uM))	Structure (SMILES)	also measured
–	–	2.4	10 µM	16.7 µM	0.005 µM	43 µM (≈ 80.7 µg/mL)	CC(=O)N1CCC[C@]12CC=CCCCC1(CCCC=CCCCOC(=O)N3CC[C@@](C(=O)N[C@@H](Cc4ccccc4Cl)C(=O)N[C@@H](Cc4csc5ccccc45)C(=O)N[C@@H](C)CO)(C3)NC(=O)[C@H](CC(N)=O)NC(=O)[C@H](Cc3ccccc3)NC(=O)[C@H](C)NC(=O)[C@H](C)NC(=O)[C@H](CC(=O)O)NC(=O)[C@H](CC(=O)O)NC1=O)NC(=O)[C@H](CC(C)(C)C)NC(=O)[C@H](CC(=O)O)NC2=O (stereo partly drawn) [I-1081, Ac-PL3-Asp-Npg-B5-Asp-Asp-Ala-Ala-Phe-Asn-PyrS2-2C1F-BztA-Alao1]	DLD1 TCF c2 BrightGlo % Inhibition [2, 6]: 67.2% and 69.3% and 72.3%; IC50 ([2]; read-out: DLD1 4% Abs IC50, DLD1 4%): 10.6 µM; DLD1 TCF c2 BrightGlo % Inhibition ([2]; 0.625 µM): 9.2% and 7.1% and 11.5%; DLD1 TCF c2 BrightGlo % Inhibition ([2]; 1.25 µM): 0.8% and 2.4% and 5.4%; DLD1 TCF c2 BrightGlo % Inhibition ([2]; 2.5 µM): 4.5% and 7.9% and 15.2%; DLD1 TCF c2 BrightGlo % Inhibition ([2]; 10 µM): 45.6% and 49.8% and 55.3%; DLD1 TCF c2 BrightGlo % Inhibition [2, 7]: 17.5% and 23.8% and 31.0%
–	–	2.33	4.8 µM	14.1 µM	0.005 µM	48 µM (≈ 91.5 µg/mL)	CC(=O)N1CCC[C@]12CC=CCCCC1(CCCC=CCCCOC(=O)N3CC[C@@](C(=O)N[C@@H](Cc4ccccc4Cl)C(=O)N[C@@H](Cc4csc5ccccc45)C(=O)N[C@H](CO)[C@@H](C)O)(C3)NC(=O)[C@H](CC(N)=O)NC(=O)[C@H](Cc3ccccc3)NC(=O)[C@H](C)NC(=O)[C@H](C)NC(=O)[C@H](CC(=O)O)NC(=O)[C@H](CC(=O)O)NC1=O)NC(=O)[C@H](CC(C)(C)C)NC(=O)[C@H](CC(=O)O)NC2=O (stereo partly drawn) [I-1082, Ac-PL3-Asp-Npg-B5-Asp-Asp-Ala-Ala-Phe-Asn-PyrS2-2C1F-BztA-Thro1]	DLD1 TCF c2 BrightGlo % Inhibition [2, 6]: 76.5% and 77.1% and 79.9%; DLD1 TCF c2 BrightGlo % Inhibition ([2]; 0.625 µM): 14.1% and 17.4% and 20.3%; DLD1 TCF c2 BrightGlo % Inhibition ([2]; 1.25 µM): 14.0% and 21.5% and 24.0%; DLD1 TCF c2 BrightGlo % Inhibition ([2]; 2.5 µM): 17.3% and 36.1% and 37.9%; DLD1 TCF c2 BrightGlo % Inhibition ([2]; 10 µM): 63.9% and 71.0% and 75.0%; DLD1 TCF c2 BrightGlo % Inhibition [2, 7]: 38.5% and 56.2% and 62.0%
2.766	–	–	> 20 µM	9.3 µM	0.009 µM	–	CC(=O)N1CCC[C@]12CC=CCCCC1(CCCC=CCCCCCC[C@@](C)(C(=O)N[C@@H](Cc3ccccc3Cl)C(=O)N[C@@H](Cc3csc4ccccc34)C(=O)N[C@@H](CCC(N)=O)C(N)=O)NC(=O)[C@H]([C@@H](C)O)NC(=O)[C@H](Cc3ccccc3)NC(=O)[C@H](C)NC(=O)[C@H](C)NC(=O)[C@H](CC(=O)O)NC(=O)[C@H](CC(=O)O)NC1=O)NC(=O)[C@H](CC(C)(C)C)NC(=O)[C@H](CC(=O)O)NC2=O (stereo partly drawn) [I-1087, Ac-PL3-Asp-Npg-B5-Asp-Asp-Ala-Ala-Phe-Thr-S8-2C1F-BztA-Gln-NH2]	IC50 [3]: 9.3 µM; IC50 ([4]; fluorescence polarization, beta-catenin, read-out: FP EC50): 0.009 µM; Solubility (Solubility in PBS): 44 µM (≈ 83.2 µg/mL)
–	–	3.61	> 20 µM	> 20 µM	0.04 µM	20 µM (≈ 37.5 µg/mL)	CC(=O)N1CCC[C@]12CC=CCCCC1(CCCC=CCCCCCC[C@@](C)(C(=O)N[C@@H](Cc3ccccc3Cl)C(=O)N[C@@H](Cc3csc4ccccc34)C(=O)N[C@@H](C(N)=O)[C@H](C)O)NC(=O)[C@H](CC(C)C)NC(=O)[C@H](Cc3ccccc3)NC(=O)[C@H](C)NC(=O)[C@H](C)NC(=O)[C@H](CC(=O)O)NC(=O)[C@H](CC(=O)O)NC1=O)NC(=O)[C@H](CC(C)(C)C)NC(=O)[C@H](CC(=O)O)NC2=O (stereo partly drawn) [I-1097, Ac-PL3-Asp-Npg-B5-Asp-Asp-Ala-Ala-Phe-Leu-S8-2C1F-BztA-dThr-NH2]	–

Reference: patent US20240116985A1, “STAPLED PEPTIDES AND METHODS THEREOF” (priority 2020, published 2024)
